Assay results as given in patent publication US4548820A, “Xanthine compounds” (Adir, priority 1982, dated 1985).
pIC50: −log10 of the molar value.

How the values were obtained:
[1] = system: effect produced in the guinea pig by a histamine aerosol; experiment: Test of A. K. Armitage, histamine aerosol at 4%; assay type: in vivo; conditions: oral administration of 5 mg/kg
Procedure: When submitted to the test of A. K. Armitage, Brit J. Pharmacol. 17, 196, (1961), the compounds according to the invention administered by oral route at doses between 0.5 and 10 mg/kg, depending on the compounds, inhibit by 50% the effect produced in the guinea pig by a histamine aerosol at 4%. For certain of these compounds, the effect is still very strong 48 hours after oral administration.
By way of non-restricting example, the oral administration of 5 mg/kg of the compound of example 1, inhibits for more than 48 hours the broncho-spasm caused be a histamine aerosol at 4%. In addition, a reduction of the anaphylactic cutaneous reaction is observed in the rat after a single administration of 20 mg/kg per os of this compound.

A 1 receptors = target: T1, A 1 receptors (Homo sapiens, UniProt P30542); experiment: Purinergic A 1 receptors; assay type: binding
T1 sequence (P30542 1-326): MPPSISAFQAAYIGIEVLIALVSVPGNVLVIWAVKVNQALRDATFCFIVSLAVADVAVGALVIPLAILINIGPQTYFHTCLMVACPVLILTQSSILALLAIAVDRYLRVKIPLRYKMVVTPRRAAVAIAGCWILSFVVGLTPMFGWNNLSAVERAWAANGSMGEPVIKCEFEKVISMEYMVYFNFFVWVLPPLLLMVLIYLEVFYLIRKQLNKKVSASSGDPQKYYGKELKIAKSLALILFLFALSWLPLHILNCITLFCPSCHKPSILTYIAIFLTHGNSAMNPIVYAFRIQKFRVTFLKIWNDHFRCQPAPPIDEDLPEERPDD

Q: With `CC(C)Cn1c(=O)n(C)c(=O)c2[nH]c(CCN3CCN(C(c4ccccc4)c4ccccc4)CC3)nc21` [Example 1, 1-methyl-3-isobutyl-8-[2-(4-diphenylmethyl-piperazinyl)ethyl]xanthine] as the molecule, how does the “duration of inhibition of the broncho-spasm caused by a histamine aerosol at 4%” value [1] read?
A: more than 48 hours

Q: And the pIC50 (A 1 receptors)?
A: < 4.00
